We go through 41 molecules from article PMC11873635 (Acta Pharmaceutica Sinica. B, 2024).

One experiment concerns the target T1, human SMS2 (Homo sapiens, UniProt Q8NHU3).
T1 sequence (Q8NHU3 1-365): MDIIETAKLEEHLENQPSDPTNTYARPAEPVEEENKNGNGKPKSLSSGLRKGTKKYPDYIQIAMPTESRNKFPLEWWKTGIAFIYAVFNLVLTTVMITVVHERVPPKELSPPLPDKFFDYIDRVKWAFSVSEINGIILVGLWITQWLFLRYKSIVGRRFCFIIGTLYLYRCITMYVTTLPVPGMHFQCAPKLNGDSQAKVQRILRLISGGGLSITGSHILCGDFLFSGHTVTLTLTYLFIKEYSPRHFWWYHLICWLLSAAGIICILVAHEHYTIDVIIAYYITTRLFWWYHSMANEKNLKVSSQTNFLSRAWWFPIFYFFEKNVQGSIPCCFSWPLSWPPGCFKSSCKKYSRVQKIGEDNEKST
The experiment in a line: purified SMS enzyme inhibitory assay in vitro. Particulars: for Selectivity ratio: IC50, SMS1/IC50, SMS2; for LLE: pIC50, SMS2 – ClogP; for inhibition at 1 µM: read-out: SMS2 Inhibition @ 1 μmol/L (%). In kind it is biochemical.

In a further experiment the target is T2, human SMS1 (Homo sapiens, UniProt Q86VZ5).
T2 sequence (Q86VZ5 1-413): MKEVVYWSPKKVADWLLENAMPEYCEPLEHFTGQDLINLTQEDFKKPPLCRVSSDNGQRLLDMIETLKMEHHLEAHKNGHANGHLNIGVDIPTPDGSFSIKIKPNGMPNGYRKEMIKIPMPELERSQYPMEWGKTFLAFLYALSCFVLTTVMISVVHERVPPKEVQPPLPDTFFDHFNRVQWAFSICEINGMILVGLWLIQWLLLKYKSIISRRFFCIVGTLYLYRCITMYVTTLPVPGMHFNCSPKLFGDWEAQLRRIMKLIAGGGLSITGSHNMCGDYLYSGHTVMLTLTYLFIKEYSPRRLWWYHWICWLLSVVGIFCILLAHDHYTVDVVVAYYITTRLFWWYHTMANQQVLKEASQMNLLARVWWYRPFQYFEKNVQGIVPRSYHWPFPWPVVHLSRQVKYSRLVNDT
Kind of experiment: purified SMS enzyme inhibitory assay in vitro. Particulars: for inhibition at 100 µM: read-out: SMS1 Inhibition @ 100 μmol/L (%). In kind it is biochemical.

Regarding `O=C(Nc1cccnc1)c1sccc1OCc1ccccc1` [5a], on human SMS2, half-maximal inhibition (IC50) was put at 0.4 µM, the Selectivity ratio is recorded as 547, the LLE stood at 3.33 and the inhibition at 1 µM turned out to be 66%. Also, on human SMS1, 219 µM corresponded to half-maximal inhibition (IC50) and the inhibition at 100 µM stood at 20%.

As to `O=C(Nc1cccnc1)c1ncccc1OCc1ccccc1` [5b], the inhibition at 100 µM on human SMS1 is -18%.

As to `Cc1cc(OCc2ccccc2)c(C(=O)Nc2cccnc2)s1` [5c], the inhibition at 1 µM on human SMS2 was 34%. In addition, on human SMS1, the inhibition at 100 µM is -14%.

As for `Cc1nc(OCc2ccccc2)c(C(=O)Nc2cccnc2)s1` [5d], the inhibition at 100 µM at human SMS1 turned out to be 10%.

For `O=C(Nc1cccnc1)c1sc([N+](=O)[O-])cc1OCc1ccccc1` [5e], the inhibition at 100 µM at human SMS1 is -4%.

Regarding `O=C(Nc1cccnc1)c1scc(Br)c1OCc1ccccc1` [5f], the inhibition at 1 µM at human SMS2 was 42%. Also, on human SMS1, the inhibition at 100 µM was found to be 14%.

Consider `O=C(Nc1cccnc1F)c1sccc1OCc1ccccc1` [7a], for which, on human SMS2, the IC50 (commonly the concentration that gives 50% inhibition) was found to be 1.79 µM, the LLE was found to be 2.31 and the inhibition at 1 µM is 41%. Also, at human SMS1, the inhibition at 100 µM was determined as 53%.

Take `O=C(Nc1cnccc1Cl)c1sccc1OCc1ccccc1` [7b]: the inhibition at 1 µM on human SMS2 amounted to 7%. The inhibition at 100 µM at human SMS1 is -39%.

Take `O=C(Nc1cncc(F)c1)c1sccc1OCc1ccccc1` [7c]: the inhibition at 1 µM at human SMS2 worked out at 56%. Further, the inhibition at 100 µM at human SMS1 worked out at 52%.

Regarding `O=C(Nc1ccc(F)nc1)c1sccc1OCc1ccccc1` [7d], at human SMS2, the inhibition at 1 µM is 12%. In addition, the inhibition at 100 µM on human SMS1 was 57%.

Take `Cc1ncccc1NC(=O)c1sccc1OCc1ccccc1` [7e]: the inhibition at 1 µM at human SMS2 is 3%. Besides, the inhibition at 100 µM at human SMS1 is -20%.

`Cc1ccncc1NC(=O)c1sccc1OCc1ccccc1` [7f]: the inhibition at 1 µM on human SMS2 is -4%. Moreover, at human SMS1, the inhibition at 100 µM is -17%.

`Cc1cncc(NC(=O)c2sccc2OCc2ccccc2)c1` [7g]: the inhibition at 1 µM on human SMS2 came out at 12%. Further, the inhibition at 100 µM on human SMS1 came out at 28%.

As to `Cc1ccc(NC(=O)c2sccc2OCc2ccccc2)cn1` [7h], the inhibition at 1 µM on human SMS2 was -3%. Also, on human SMS1, the inhibition at 100 µM is 22%.

With `O=C(Nc1cccnn1)c1sccc1OCc1ccccc1` [7i], the inhibition at 1 µM on human SMS2 amounted to 25%. For the same molecule, the inhibition at 100 µM at human SMS1 amounted to 22%.

As to `O=C(Nc1ccnnc1)c1sccc1OCc1ccccc1` [7j], the inhibition at 1 µM on human SMS2 was -16%. The inhibition at 100 µM at human SMS1 came out at 5%.

Consider `O=C(Nc1ccccc1)c1sccc1OCc1ccccc1` [7k], for which the inhibition at 1 µM on human SMS2 worked out at 3%.

For `O=C(Nc1cccnc1)c1sccc1OCc1cccc2ccccc12` [9a], on human SMS2, the inhibition at 1 µM was determined as 86%. For the same molecule, the inhibition at 100 µM at human SMS1 is 39%.

Regarding `O=C(Nc1cccnc1)c1sccc1OCc1ccc2ccccc2c1` [9b], the inhibition at 1 µM on human SMS2 came out at 36%. Also, the inhibition at 100 µM on human SMS1 came out at 42%.

In the case of `O=C(Nc1cccnc1)c1sccc1OCc1c2ccccc2cc2ccccc12` [9c], the inhibition at 1 µM at human SMS2 is 79%. Also, the inhibition at 100 µM at human SMS1 worked out at 5%.

Regarding `O=C(Nc1cccnc1)c1sccc1OCc1cccc2cccnc12` [9d], the inhibition at 1 µM on human SMS2 was 45%. Moreover, the inhibition at 100 µM at human SMS1 came out at 21%.

`CCCCCCCCOc1ccsc1C(=O)Nc1cccnc1` [9e]: on human SMS2, the inhibition at 1 µM was -11%. On human SMS1, the inhibition at 100 µM was 67%.

For the molecule `O=C(Nc1cccnc1)c1sccc1OCc1ccccc1Cl` [14a], at human SMS2, it took 0.307 µM to reach half-maximal inhibition (IC50), the LLE came to 2.90 and the inhibition at 1 µM came out at 64%. Besides, the inhibition at 100 µM on human SMS1 came out at 56%.

In the case of `O=C(Nc1cccnc1)c1sccc1OCc1cccc(Cl)c1` [14b], at human SMS2, the concentration for half-maximal inhibition (IC50) was 0.199 µM, the LLE is given as 3.02 and the inhibition at 1 µM was 68%. Besides, at human SMS1, the inhibition at 100 µM amounted to 60%.

Turning to `O=C(Nc1cccnc1)c1sccc1OCc1ccc(Cl)cc1` [14c], at human SMS2, the IC50 is 38.8 µM, the LLE came out at 0.75 and the inhibition at 1 µM amounted to 26%. At human SMS1, the inhibition at 100 µM turned out to be 52%.

`O=C(Nc1cccnc1)c1sccc1OCc1cc(F)ccc1Cl` [14d]: the inhibition at 1 µM at human SMS2 stood at 79%. Besides, on human SMS1, the IC50 turned out to be 102 µM and the inhibition at 100 µM is 53%.

For the molecule `COc1ccccc1COc1ccsc1C(=O)Nc1cccnc1` [14e], on human SMS2, the concentration for half-maximal inhibition (IC50) worked out at 0.07 µM, the Selectivity ratio is 2295, the LLE turned out to be 4.04 and the inhibition at 1 µM was 82%. In addition, on human SMS1, the 50% inhibitory concentration (IC50) stood at 160 µM and the inhibition at 100 µM amounted to 33%.

For `CCOc1ccccc1COc1ccsc1C(=O)Nc1cccnc1` [14f], on human SMS2, the half-inhibitory concentration (IC50) turned out to be 0.078 µM, the Selectivity ratio is recorded as 1004, the LLE was 3.67 and the inhibition at 1 µM came out at 83%. On human SMS1, inhibition was half-maximal at 78 µM (IC50) and the inhibition at 100 µM came out at 56%.

Regarding `CCCOc1ccccc1COc1ccsc1C(=O)Nc1cccnc1` [14g], at human SMS2, the IC50 is 0.103 µM, the Selectivity ratio is reported as 477, the LLE turned out to be 3.18 and the inhibition at 1 µM is 78%. Further, at human SMS1, the 50% inhibitory concentration (IC50) was 49 µM and the inhibition at 100 µM amounted to 74%.

In the case of `CCCCOc1ccccc1COc1ccsc1C(=O)Nc1cccnc1` [14h], on human SMS2, the 50% inhibitory concentration (IC50) was 0.065 µM, the Selectivity ratio amounted to 313, the LLE came to 3.14 and the inhibition at 1 µM is 85%. Also, at human SMS1, the IC50 worked out at 20 µM and the inhibition at 100 µM came to 81%.

As for `CCCCCOc1ccccc1COc1ccsc1C(=O)Nc1cccnc1` [14i], at human SMS2, the IC50 is 0.074 µM, the Selectivity ratio is listed as 142, the LLE is on record as 2.62 and the inhibition at 1 µM was 86%. In addition, at human SMS1, the IC50 was found to be 10 µM and the inhibition at 100 µM was 88%.

For the molecule `CCCCCCOc1ccccc1COc1ccsc1C(=O)Nc1cccnc1` [14j], at human SMS2, the half-inhibitory concentration (IC50) came to 0.067 µM, the Selectivity ratio came out at 85, the LLE stood at 2.52 and the inhibition at 1 µM came to 88%. For the same molecule, at human SMS1, the half-maximal inhibitory concentration (IC50) worked out at 6 µM and the inhibition at 100 µM turned out to be 93%.

Regarding `CCCCCCCOc1ccccc1COc1ccsc1C(=O)Nc1cccnc1` [14k], on human SMS2, the concentration for half-maximal inhibition (IC50) was 0.029 µM, the Selectivity ratio is given as 459, the LLE came out at 2.37 and the inhibition at 1 µM stood at 91%. On human SMS1, the midpoint of inhibition, the IC50, lay at 13 µM and the inhibition at 100 µM was 90%.

With `CCCCCCCCCOc1ccccc1COc1ccsc1C(=O)Nc1cccnc1` [14m], on human SMS2, the 50% inhibitory concentration (IC50) turned out to be 0.035 µM, the Selectivity ratio worked out at 360, the LLE was 1.58 and the inhibition at 1 µM stood at 91%. Further, at human SMS1, the half-maximal inhibitory concentration (IC50) is 13 µM and the inhibition at 100 µM is 86%.

Turning to `CCCCCCCCCCOc1ccccc1COc1ccsc1C(=O)Nc1cccnc1` [14n], on human SMS2, the IC50 amounted to 0.031 µM, the Selectivity ratio is 409, the LLE is 1.39 and the inhibition at 1 µM came to 92%. On human SMS1, inhibition was half-maximal at 13 µM (IC50) and the inhibition at 100 µM is 87%.

As to `CCCCCCCCCCCOc1ccccc1COc1ccsc1C(=O)Nc1cccnc1` [14o], at human SMS2, 0.029 µM corresponded to half-maximal inhibition (IC50), the Selectivity ratio is listed as 445, the LLE is 0.98 and the inhibition at 1 µM came out at 95%. Moreover, on human SMS1, the IC50 was found to be 13 µM and the inhibition at 100 µM was determined as 90%.

In the case of `CCCCCCCCCCCCOc1ccccc1COc1ccsc1C(=O)Nc1cccnc1` [14p], on human SMS2, the IC50 came to 0.034 µM, the Selectivity ratio is listed as 540, the LLE worked out at 0.64 and the inhibition at 1 µM was 93%. At human SMS1, half-maximal inhibition (IC50) was put at 18 µM and the inhibition at 100 µM turned out to be 81%.

For `CCCCCCCCOc1c(Cl)cccc1COc1ccsc1C(=O)Nc1cccnc1` [14q], on human SMS2, the IC50 is 0.015 µM, the Selectivity ratio turned out to be 649, the LLE was 1.83 and the inhibition at 1 µM came to 98%. Besides, on human SMS1, the IC50 amounted to 10 µM and the inhibition at 100 µM was found to be 92%.

In the case of `CCCCCCCCOc1ccc(Cl)cc1COc1ccsc1C(=O)Nc1cccnc1` [14r], on human SMS2, the concentration for half-maximal inhibition (IC50) turned out to be 0.111 µM, the Selectivity ratio was determined as 70, the LLE came to 1.01 and the inhibition at 1 µM turned out to be 91%. On human SMS1, the IC50 was 8 µM and the inhibition at 100 µM was 85%.

Take `CN(C(=O)c1sccc1OCc1ccccc1)c1cccnc1` [compound 6]: the inhibition at 1 µM at human SMS2 amounted to 28%. In addition, on human SMS1, the inhibition at 100 µM was 20%.

Take `O=C(Nc1cccnc1)c1sccc1OS(=O)(=O)c1ccccc1` [compound 10]: on human SMS2, the inhibition at 1 µM was -3%.
